# Test results published in the supplement of paper PMC8149375.
# Experiments:
# Details in all cases: treatment: drug + dasatinib (fixed dose, not stated); 5 days
# 769-P [1] = experiment: GI50 of drug in presence of dasatinib; higher = less potent
# Experimental: (§1)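 Primary HTS combination arm: 8 RCC cell lines treated with 8 doses (up to 10 uM) of each library drug plus a fixed dose of dasatinib (dose not stated) for 5 days; viability read by CellTiter-Glo and normalised to DMSO. GI50 was fitted with XLfit, AUC is the area under the dose-response curve, and minimum viability is the lowest fraction of DMSO viability across doses.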
# 786-O [2] = experiment: as above
# Experimental: as §1
# A498 [3] = experiment: as above
# Experimental: as §1
# ACHN [4] = experiment: as above
# Experimental: as §1
# CAKI-1 [5] = experiment: as above
# Experimental: as §1
# SN12C [6] = experiment: as above
# Experimental: as §1
# TK-10 [7] = experiment: as above
# Experimental: as §1
# UO-31 [8] = experiment: as above
# Experimental: as §1
# 769-P [9] = experiment: minimum viability across doses, drug + dasatinib, relative to DMSO (fraction); higher = less growth inhibition
# Experimental: as §1
# 786-O [10] = experiment: as above
# Experimental: as §1
# A498 [11] = experiment: as above
# Experimental: as §1
# ACHN [12] = experiment: as above
# Experimental: as §1
# CAKI-1 [13] = experiment: as above
# Experimental: as §1
# SN12C [14] = experiment: as above
# Experimental: as §1
# TK-10 [15] = experiment: as above
# Experimental: as §1
# UO-31 [16] = experiment: as above
# Experimental: as §1
# 769-P [17] = experiment: AUC of dose-response viability curve, drug + dasatinib, normalised to DMSO (arbitrary (AUC of normalised viability)); higher = less growth inhibition
# Experimental: as §1
# 786-O [18] = experiment: as above
# Experimental: as §1
# A498 [19] = experiment: as above
# Experimental: as §1
# ACHN [20] = experiment: as above
# Experimental: as §1
# CAKI-1 [21] = experiment: as above
# Experimental: as §1
# SN12C [22] = experiment: as above
# Experimental: as §1
# TK-10 [23] = experiment: as above
# Experimental: as §1
# UO-31 [24] = experiment: as above
# Experimental: as §1
GI50 of drug (786-O [2]),GI50 of drug (ACHN [4]),SMILES,GI50 of drug (769-P [1]),GI50 of drug (A498 [3]),GI50 of drug (CAKI-1 [5]),GI50 of drug (SN12C [6]),GI50 of drug (TK-10 [7]),GI50 of drug (UO-31 [8]),minimum viability across doses (769-P [9]),minimum viability across doses (786-O [10]),minimum viability across doses (A498 [11]),minimum viability across doses (ACHN [12]),minimum viability across doses (CAKI-1 [13]),minimum viability across doses (SN12C [14]),minimum viability across doses (TK-10 [15]),minimum viability across doses (UO-31 [16]),AUC of dose-response viability curve (769-P [17]),AUC of dose-response viability curve (786-O [18]),AUC of dose-response viability curve (A498 [19]),AUC of dose-response viability curve (ACHN [20]),AUC of dose-response viability curve (CAKI-1 [21]),AUC of dose-response viability curve (SN12C [22]),AUC of dose-response viability curve (TK-10 [23]),AUC of dose-response viability curve (UO-31 [24])
9120 nM,3030 nM,COCC(=O)NC/C=C/c1ccc2ncnc(Nc3ccc(Oc4ccc(C)nc4)c(C)c3)c2c1 + Cc1nc(Nc2ncc(C(=O)Nc3c(C)cccc3Cl)s2)cc(N2CCN(CCO)CC2)n1 [dasatinib],2130 nM,> 10000 nM,6790 nM,> 10000 nM,3970 nM,> 10000 nM,0.253,0.479,0.925,0.386,0.492,0.632,0.406,0.653,2.18,2.46,3.67,1.88,2.26,2.48,2.41,3.68
552 nM,1830 nM,Nc1nc(NCCNc2ncc(-n3ccnc3)c(-c3ccc(Cl)cc3Cl)n2)ccc1[N+](=O)[O-] + Cc1nc(Nc2ncc(C(=O)Nc3c(C)cccc3Cl)s2)cc(N2CCN(CCO)CC2)n1 [dasatinib],1540 nM,9900 nM,1230 nM,7550 nM,1590 nM,1600 nM,0.0308,0.00601,0.474,0.0281,0.0567,0.268,0.0534,0.0119,2.13,1.93,3.68,1.88,2,2.28,2.25,3.5
683 nM,85.4 nM,COCCOc1ccc2c(c1)ncn2-c1ccc2cccc(N3CCC(N)CC3)c2n1 + Cc1nc(Nc2ncc(C(=O)Nc3c(C)cccc3Cl)s2)cc(N2CCN(CCO)CC2)n1 [dasatinib],1880 nM,3200 nM,471 nM,1690 nM,1810 nM,2910 nM,0.123,0.00646,0.0463,0.0189,0.2,0.041,0.261,0.0088,2.23,1.86,2.84,1.73,1.85,2.36,2.2,3.4
102 nM,1920 nM,CC1(COc2ccc3c(c2)ncn3-c2ccc3cccc(N4CCC(N)CC4)c3n2)COC1 + Cc1nc(Nc2ncc(C(=O)Nc3c(C)cccc3Cl)s2)cc(N2CCN(CCO)CC2)n1 [dasatinib],1710 nM,2540 nM,928 nM,1280 nM,3330 nM,2230 nM,0.222,0.00575,0.0198,0.0128,0.192,0.0349,0.181,0.0108,1.8,1.64,2.83,1.96,1.9,2.14,2.42,2.77

# More lines, now with the values behind:
SMILES,GI50 of drug (786-O [2]),GI50 of drug (ACHN [4]),GI50 of drug (769-P [1]),GI50 of drug (A498 [3]),GI50 of drug (CAKI-1 [5]),GI50 of drug (SN12C [6]),GI50 of drug (TK-10 [7]),GI50 of drug (UO-31 [8]),minimum viability across doses (769-P [9]),minimum viability across doses (786-O [10]),minimum viability across doses (A498 [11]),minimum viability across doses (ACHN [12]),minimum viability across doses (CAKI-1 [13]),minimum viability across doses (SN12C [14]),minimum viability across doses (TK-10 [15]),minimum viability across doses (UO-31 [16]),AUC of dose-response viability curve (769-P [17]),AUC of dose-response viability curve (786-O [18]),AUC of dose-response viability curve (A498 [19]),AUC of dose-response viability curve (ACHN [20]),AUC of dose-response viability curve (CAKI-1 [21]),AUC of dose-response viability curve (SN12C [22]),AUC of dose-response viability curve (TK-10 [23]),AUC of dose-response viability curve (UO-31 [24])
C[C@@H](Oc1cc(-c2cnn(C3CCNCC3)c2)cnc1N)c1c(Cl)ccc(F)c1Cl + Cc1nc(Nc2ncc(C(=O)Nc3c(C)cccc3Cl)s2)cc(N2CCN(CCO)CC2)n1 [dasatinib],798 nM,475 nM,2260 nM,3260 nM,837 nM,748 nM,3550 nM,539 nM,0.0606,0.00845,0.284,0.0735,0.0151,0.175,0.149,0.0115,2.43,2.22,2.68,1.81,1.91,1.98,2.65,2.11
CCc1cc2c(cc1N1CCC(N3CCOCC3)CC1)C(C)(C)c1[nH]c3cc(C#N)ccc3c1C2=O + Cc1nc(Nc2ncc(C(=O)Nc3c(C)cccc3Cl)s2)cc(N2CCN(CCO)CC2)n1 [dasatinib],> 10000 nM,659 nM,> 10000 nM,> 10000 nM,2340 nM,> 10000 nM,5110 nM,7800 nM,0.535,0.614,1.12,0.247,0.311,0.675,0.377,0.0552,2.47,2.35,4.59,1.82,2.04,2.45,2.35,5.15
O=C(NOCC1CC1)c1ccc(F)c(F)c1Nc1ccc(I)cc1Cl + Cc1nc(Nc2ncc(C(=O)Nc3c(C)cccc3Cl)s2)cc(N2CCN(CCO)CC2)n1 [dasatinib],4460 nM,342 nM,1780 nM,3190 nM,1480 nM,1520 nM,4600 nM,2610 nM,0.197,0.431,0.306,0.224,0.13,0.298,0.367,0.174,2.12,2.46,2.51,1.8,2.04,2.07,2.4,2.72
